# Assay results: patent US7220784B2, “Substituted stilbenes and their reactions” (priority 2000, dated 2007)
# Like-named read-outs stand apart in the source and are kept apart here.
# How the values were obtained:
# tubulin = tested on: T1, tubulin; experiment: Inhibition of tubulin assembly; assay type: biochemical; settings: concentration required to reduce assembly of tubulin by 50%
# T1 construct: other: concentration required to reduce assembly of tubulin by 50%
# Experimental: (§1) The following assays (1–5) were carried out as described in our paper (Woods, et al, British Journal of Cancer, 71, 705–711 (1995)). In addition to the cell lines described in this paper, other established human cell lines (K562, HUVEC, H460, BE, H529, and HT29) were used in the cytotoxicity/growth inhibition assay. • (1) Inhibition of tubulin assembly. The figure quoted is the concentration required to reduce assembly of tubulin by 50%. Tubulin assembly is monitored by light scatter/absorption at 350 nm.
# HUVEC = experiment: Growth inhibition studies using HUVEC; assay type: cell-based, human
# Experimental: as §1
# (§2) (2) Competition for the colchicine binding site on tubulin. The figure quoted represents the % of ^3H-colchicine bound following co-incubation of test compound and ^3H-cochicine with isolated tubulin. Where ester pro-drugs were used the experiments were carried out in the presence and absence of porcine liver esterase. • (3) Cytotoxicity/growth inhibition assay. This was carried out by the MTT assay. • (4) Permeability (shape-change) assay in endothelial cells. This was carried out using a method based on that of Watts et al. (Anticancer Res., 17, 71–75, (1997)). This involved the diffusion of a fluorescently labelled dextran through a barrier of endothelial cells (HUVEC) grown to confluence on a porous membrane. The effect of agents to alter the shape of these cells results in an increase in the permeability of the cells to the dye. The figure represents the increase in permeability over control cultures when drug is added (30 minutes, 1 mM.). • (5) Experiments to study the anti-vascular effects of these agents were carried out as described previously by our group. (Zhao et al, European Journal of Nuclear Medicine, 26, 231–238 (1999)). The anti-vascular effects of the agents were monitored by either positron emission tomography (PET) or by histologogical examination following treatment of mice bearing T50:80 murine breast tumours, or H460 human lung tumours. • (6) Anti-tumour efficacy of agents was determined in xenografts of H460 human lung cancer. Animals (n=5) were trated either with 5 daily injections and tumour size measured with time following treatment. • (7) The pharmacokinetic profile of agents was determined in mice following injection with drug. Blood was taken at various times following treatment and analysed by HPLC with UV detection. The HPLC conditions were isocratic using a 5 micron C18 BDS column (150×4.6) ad eluting with 75% MeOH in water with a detection wavelength of 290 nm. […] (AND(P)H:quinone oxidoreductace, EC 1.6.99.2). DT-diaphorase is an enzyme over-expressed in a number of human tumours. […] This two-electron reducing enzyme can be used to selectively activate prodrugs within cancers which over-express the enzyme.
# [1] = tested on: colchicine binding site on tubulin; experiment: Competition for the colchicine binding site on tubulin
# [2] = tested on: P388 murine leukaemia cell line; experiment: Cytotoxicity/growth inhibition assay (MTT), P388; assay type: cell-based
# Summary of the method: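 Growth inhibition of P388 murine and K562 human leukaemia cells measured by MTT assay.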
# A2780 = experiment: Cytotoxicity/growth inhibition assay (MTT), A2780; assay type: cell-based
# Summary of the method: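 MTT cytotoxicity/growth-inhibition assay in human cell lines including A2780, A2780/ADR, H460 and HUVEC.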
# [3] = tested on: H460 human lung cell line; experiment: Cytotoxicity/growth inhibition assay (MTT), H460; assay type: cell-based
# Experimental: as §1, §2
# [4] = tested on: diaphorase null H596 cell line; experiment: Cytotoxicity/growth inhibition assay (MTT), H596; assay type: cell-based
# Experimental: as §1
# (2) Competition for the colchicine binding site on tubulin. The figure quoted represents the % of ^3H-colchicine bound following co-incubation of test compound and ^3H-cochicine with isolated tubulin. Where ester pro-drugs were used the experiments were carried out in the presence and absence of porcine liver esterase. • (3) Cytotoxicity/growth inhibition assay. This was carried out by the MTT assay. • (4) Permeability (shape-change) assay in endothelial cells. This was carried out using a method based on that of Watts et al. (Anticancer Res., 17, 71–75, (1997)). This involved the diffusion of a fluorescently labelled dextran through a barrier of endothelial cells (HUVEC) grown to confluence on a porous membrane. The effect of agents to alter the shape of these cells results in an increase in the permeability of the cells to the dye. The figure represents the increase in permeability over control cultures when drug is added (30 minutes, 1 mM.). • (5) Experiments to study the anti-vascular effects of these agents were carried out as described previously by our group. (Zhao et al, European Journal of Nuclear Medicine, 26, 231–238 (1999)). The anti-vascular effects of the agents were monitored by either positron emission tomography (PET) or by histologogical examination following treatment of mice bearing T50:80 murine breast tumours, or H460 human lung tumours. • (6) Anti-tumour efficacy of agents was determined in xenografts of H460 human lung cancer. Animals (n=5) were trated either with 5 daily injections and tumour size measured with time following treatment. • (7) The pharmacokinetic profile of agents was determined in mice following injection with drug. Blood was taken at various times following treatment and analysed by HPLC with UV detection. The HPLC conditions were isocratic using a 5 micron C18 BDS column (150×4.6) ad eluting with 75% MeOH in water with a detection wavelength of 290 nm. The retention time of 6.6 mins for 97–64H. • (8) Activation of quinone prodrugs by DT-diaphorase. (AND(P)H:quinone oxidoreductace, EC 1.6.99.2). DT-diaphorase is an enzyme over-expressed in a number of human tumours. We have recently shown this enzyme to be highly expressed in the endothelial cells of blood vessels. This two-electron reducing enzyme can be used to selectively activate prodrugs within cancers which over-express the enzyme. We have therefore synthesised quinone pro-drugs (97–96, 98–40, 98–23, 98–33, 98–24) which, upon reduction by the enzyme, produces an agent (a hydroquinone stilbene) which is cytotoxic.
# A series of prodrugs capable of being activated by DT-diaphorase, an enzyme over-expressed in a wide range of human cancers and in endothelial cells of the vasculature were synthesised. The rationale for this is that these agents will be activated in situ by the tumours over-expressing the enzyme, thus giving rise to a high local concentration of active drug. This confers selectivity to this agent. These quinone prodrugs (97–96 and 98–23) were tested for their ability to act as substrates for DT-diaphorase. […] This agent may therefore have a role in the treatment of tumours that over-express DT-diaphorase. Similarly, these agents maybe selectively activated in the endothelial cells of the vasculature, thereby conferring a selective anti-vascular effect.
# [5] = tested on: cancer cell growth in vitro; experiment: Inhibition of cancer cell growth in vitro (cell line not stated); assay type: cell-based; settings: read-out: IC50, ability to inhibit cancer cell growth in vitro
# K562 = K562 cell cycle analysis; assay type: cell-based, human
# [6] = background; cited from earlier work
# [7] = tested on: cancer cell growth in vitro; settings: background; cited from earlier work
# K562 cells = experiment: In situ ultra violet irradiation of dosed K562 cells, IC50; assay type: cell-based, human; settings: K562, in situ, within 2 seconds of exposure; read-out: IC50 after exposure to ultraviolet light
# Experimental: Previously, the isomerisation study had been performed ex situ, i.e. in a photochemical reactor. However, it was necessary to illustrate the potential of the process as a real therapy by repeating the isomerization in the presence of the caner cells i.e. in situ. […] Following irradiation, the cells were incubated in the normal way and the IC50 values were determined.
# These consisted of i) exposing K562 cells only (i.e. cells which were not dosed with any potential drug candidate) to ultra violet light, ii) preventing K562 cells dosed with drug candidate from being exposed to ultra violet light, and iii) preventing K562 cells only (i.e. cells which were not dosed with any potential drug candidate) from being exposed to ultra violet light. […]
compound,measurement,setting,value
COc1ccc(C=Cc2cc(OC)c(OC)c(OC)c2)cc1OC(=O)c1ccncc1 [Compound 96-167],IC50,tubulin,9 µM
same,IC50,"HUVEC; Homo sapiens, HUVEC",40 nM
same,Colchicine % Inhibition,[1],3.8%
same,IC50,[2]; MTT,0.8 nM
same,IC50,A2780; read-out: A2780 IC50,0.37 nM
COC1=CC(=O)C(CCc2cc(OC)c(OC)c(OC)c2)=CC1=O [Compound 98-24],IC50,"[3]; Homo sapiens, NCI-H460",3080 nM
same,IC50,"[4]; Homo sapiens, NCI-H596",1950 nM
same,H596/H460,"[4]; ratio of IC50, diaphorase null H596 over H460",0.63
same,IC50,"[2]; Mus musculus, P388",17000 nM
same,IC50,"A2780; Homo sapiens, A2780, read-out: IC50 (nM) A2780",1630 nM
c1ccc2c(c1)ccc1ccccc12 [phenanthrene],IC50,[5],700 nM
COC(=O)CCOc1cc([N+](=O)[O-])c(CCc2cc(/C=C\c3cc(OC)c(OC)c(OC)c3)ccc2OC)cc1OC,melting point,,132 to 134 °C
"cis-combretastatin A-4 [Compound 1, reference compound]",% of cells in G0–G1,K562,3%
same,% of cells in G2-M,K562,92%
same,% of cells in S phase,K562,6%
same,% of cells with DNA content <2 n,K562,7%
same,water solubility,[6],poor water solubility
"COc1ccc(/C=C/c2cc(OC)c(OC)c(OC)c2)cc1O [trans-CA-4, trans-combretastatin A-4, reference compound]",inhibits cell growth,[7],μM range
same,IC50,K562 cells,2 nM
COc1cc(/C=C\c2ccc(C)c(F)c2)cc(OC)c1OC [Compound 98-35H],IC50,tubulin,6.25 µM
same,IC50,HUVEC,16 nM
same,Colchicine % Inhibition,[1],5%
same,IC50,[2]; MTT,3.28 nM
same,IC50,A2780; read-out: A2780 IC50,1.44 nM
COc1ccc(/C=C\c2cc(OC)c(OC)c(OC)c2)cc1Oc1c(F)c(F)nc(F)c1F [Compound 97-13H],IC50,[3],32 to 35 nM
same,IC50,tubulin,> 100 µM
same,IC50,HUVEC,45 nM
same,Colchicine % Inhibition,[1],84.2%
same,IC50,[2]; MTT,32.6 nM
same,IC50,A2780; read-out: A2780 IC50,17.9 nM
